Measured values reported in patent US12344603B2 (Genentech, Inc., priority 2020, dated 2025).
Where a name gives a salt, the structure may show the parent alone.

Biological target: IRE1α (Homo sapiens (Human), UniProt O75460, D688N)
Assay: IRE1α TR-FRET competition binding assay (IRE1α HTRF)
Details: TR-FRET competition binding to kinase domain of IRE1α
Method: IRE1α TR-FRET Competition Binding Assay. The affinity of compound binding to the kinase domain of IRE1α was determined using a time-resolved fluorescence resonance energy transfer (TR-FRET) competition assay.
The purified protein (final concentration 0.25 nM) was pre-incubated with anti-His Europium labeled antibody (Life Technologies PV5596, final concentration 2 nM) for one hour at 4° C. in TR-FRET Assay Buffer (50 mM HEPES, pH 7.5, 10 mM MgCl2, 0.083 mM Brij 35, 1 mM DTT, and 0.1% bovine gamma globulin) prior to addition to test compounds. An Alexa fluor 647-labeled probe based on an ATP competitive inhibitor was added to a final concentration of 2 nM. Reactions were carried out for one hour at room temperature in a final volume of 20 μL in 384 well white ProxiPlates (Perkin Elmer 6008289). Binding of the probe to the IRE1α protein was detected in an Envision instrument (PerkinElmer) equipped with a TRF laser option and a LANCE/Delfia Dual/Bias D400/D630 mirror (Ex 347 nm, 1st Em 665 nm, 2nd Em 615 nm).

IRE1α, sequence (O75460 547-977 D688N): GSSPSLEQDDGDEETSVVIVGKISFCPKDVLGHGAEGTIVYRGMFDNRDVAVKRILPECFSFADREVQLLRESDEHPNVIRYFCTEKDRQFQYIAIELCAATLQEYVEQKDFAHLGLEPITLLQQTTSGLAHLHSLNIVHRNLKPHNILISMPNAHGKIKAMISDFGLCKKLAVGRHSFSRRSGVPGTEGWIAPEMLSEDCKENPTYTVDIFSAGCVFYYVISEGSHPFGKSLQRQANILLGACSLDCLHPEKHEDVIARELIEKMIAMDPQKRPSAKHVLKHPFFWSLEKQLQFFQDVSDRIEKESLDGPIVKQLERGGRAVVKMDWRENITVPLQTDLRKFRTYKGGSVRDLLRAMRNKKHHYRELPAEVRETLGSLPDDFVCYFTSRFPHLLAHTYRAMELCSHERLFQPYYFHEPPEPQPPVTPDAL

For `CCC1CCN(c2ccc(-c3cc4cnc(N[C@@H]5CNC[C@@H](F)C5)nc4n(CC)c3=O)c(F)c2F)C1=O` (stereo partly drawn) [Compound 41, 8-Ethyl-6-(4-(3-ethyl-2-oxopyrrolidin-1-yl)-2,3-difluorophenyl)-2-(((3S,5S)-5-fluoropiperidin-3-yl)amino)pyrido[2,3-d]pyrimidin-7(8H)-one], the IC50 was 87 nM.
Molecule `CCC(F)(F)CS(=O)(=O)Nc1c(F)cc(-c2cc3cnc(N[C@H]4CC[C@H](N(C)C)CC4)nc3n(C(C)C)c2=O)c(F)c1F` [Compound 36, N-(4-(2-(((1r,4r)-4-(Dimethylamino)cyclohexyl)amino)-8-isopropyl-7-oxo-7,8-dihydropyrido[2,3-d]pyrimidin-6-yl)-2,3,6-trifluorophenyl)-2,2-difluorobutane-1-sulfonamide] has an IC50 of 0.18 nM.
Molecule `CC(C)n1c(=O)c(-c2ccc(NS(=O)(=O)Cc3ccccc3F)nc2)cc2cnc(N[C@@H]3CNC[C@@H](F)C3)nc21` [Compound 93, 1-(2-Fluorophenyl)-N-(5-(2-(((3S,5S)-5-fluoropiperidin-3-yl)amino)-8-isopropyl-7-oxo-7,8-dihydropyrido[2,3-d]pyrimidin-6-yl)pyridin-2-yl)methanesulfonamide] has an IC50 of 0.24 nM.
`CC(C)n1c(=O)c(-c2ccc(NS(=O)(=O)C3CCC(F)(F)CC3)c(F)c2)nc2cnc(N[C@H]3CC[C@H](N(C)C)CC3)nc21` [Example 280, N-[4-[2-[[4-(Dimethylamino)cyclohexyl]amino]-8-isopropyl-7-oxo-pteridin-6-yl]-2-fluoro-phenyl]-4,4-difluoro-cyclohexanesulfonamide] gave an IC50 of 0.2 nM.
`CC(C)n1c(=O)c(-c2ccc(NS(=O)(=O)CCC(F)(F)F)c(F)c2)cc2cnc(NC3CCNCC3)nc21` [Compound 201, 3,3,3-Trifluoro-N-(2-fluoro-4-(8-isopropyl-7-oxo-2-(piperidin-4-ylamino)-7,8-dihydropyrido[2,3-d]pyrimidin-6-yl)phenyl)propane-1-sulfonamide] showed an IC50 of 8.7 nM.
Work on `CC(C)n1c(=O)c(-c2cc(F)c(NS(=O)(=O)CCC(F)(F)F)c(F)c2)cc2cnc(N[C@H]3CC[C@H](N(C)C)CC3)nc21` [Compound 70, N-(4-(2-(((1,4-trans)-4-(Dimethylamino)cyclohexyl)amino)-8-isopropyl-7-oxo-7,8-dihydropyrido[2,3-d]pyrimidin-6-yl)-2,6-difluorophenyl)-3,3,3-trifluoropropane-1-sulfonamide] yielded an IC50 of 0.26 nM.
In the case of `CC(C)n1c(=O)c(-c2cc(F)c(NS(=O)(=O)CCC(F)(F)F)c(F)c2)cc2cnc(NC3CCC(N(C)C)C(F)C3)nc21` (single isomer, unassigned) [Compound 118A, N-(4-(2-((4-(Dimethylamino)-3-fluorocyclohexyl)amino)-8-isopropyl-7-oxo-7,8-dihydropyrido[2,3-d]pyrimidin-6-yl)-2,6-difluorophenyl)-3,3,3-trifluoropropane-1-sulfonamide], the IC50 is reported as 0.73 nM.
With `COCCN(C)C1CCC(Nc2ncc3cc(-c4cc(F)c(NS(=O)(=O)Cc5ccccc5)c(F)c4F)c(=O)n(C(C)C)c3n2)CC1` (single isomer, unassigned) [Compound 102A, 1-Phenyl-N-(2,3,6-trifluoro-4-(8-isopropyl-2-((4-((2-methoxyethyl)(methyl)amino)cyclohexyl)amino)-7-oxo-7,8-dihydropyrido[2,3-d]pyrimidin-6-yl)phenyl)methanesulfonamide] the IC50 was 0.16 nM.
With `CC(C)n1c(=O)c(-c2ccc(NS(=O)(=O)CC3CCCCC3)c(F)c2)nc2cnc(N[C@H]3CC[C@H](N(C)C)CC3)nc21` [Example 269, 1-Cyclohexyl-N-[4-[2-[[4-(dimethylamino)cyclohexyl]amino]-8-isopropyl-7-oxo-pteridin-6-yl]-2-fluoro-phenyl]methanesulfonamide] the IC50 was 0.2 nM.
`CC(C)n1c(=O)c(-c2cc(F)c(NS(=O)(=O)CCC(F)(F)F)cc2F)cc2cnc(N[C@H]3CC[C@H](N(C)C)CC3)nc21` [Compound 71, N-(4-(2-(((1,4-trans)-4-(Dimethylamino)cyclohexyl)amino)-8-isopropyl-7-oxo-7,8-dihydropyrido[2,3-d]pyrimidin-6-yl)-2,5-difluorophenyl)-3,3,3-trifluoropropane-1-sulfonamide formate] was tested, and the IC50 was 0.25 nM.
In the case of `CC(C)n1c(=O)c(-c2ccc(NS(=O)(=O)CC3CC(F)(F)C3)c(F)c2)nc2cnc(N[C@H]3CC[C@H](N(C)C)[C@@H](F)C3)nc21` (stereo in doubt) [Compound 193A, 1-(3,3-Difluorocyclobutyl)-N-(4-(2-((4-(dimethylamino)-3-fluorocyclohexyl)amino)-8-isopropyl-7-oxo-7,8-dihydropteridin-6-yl)-2-fluorophenyl)methanesulfonamide], the IC50 is reported as 0.2 nM.
`CC(C)Nc1ncc2cc(-c3cc(F)c(NS(=O)(=O)Cc4ccccc4)c(F)c3F)c(=O)n(C(C)C)c2n1` [Compound 20, 1-Phenyl-N-(2,3,6-trifluoro-4-(8-isopropyl-2-(isopropylamino)-7-oxo-7,8-dihydropyrido[2,3-d]pyrimidin-6-yl)phenyl)methanesulfonamide] was tested, and the IC50 was 1.2 nM.
`CC(C)n1c(=O)c(-c2cc(F)c(NCC(O)C(F)(F)F)c(F)c2F)cc2cnc(N[C@H]3CC[C@H](N(C)C)CC3)nc21` (some centres unmarked) [Compound 99A, 2-(((1r,4r)-4-(Dimethylamino)cyclohexyl)amino)-8-isopropyl-6-(2,3,5-trifluoro-4-((3,3,3-trifluoro-2-hydroxypropyl)amino)phenyl)pyrido[2,3-d]pyrimidin-7(8H)-one] gave an IC50 of 68 nM.
For `Cn1c(=O)c(-c2cc(F)c(NS(=O)(=O)Cc3ccccc3)c3ccccc23)cc2cnc(N[C@H]3CCCNC3)nc21` [Compound 6, (S)—N-(2-Fluoro-4-(8-methyl-7-oxo-2-(piperidin-3-ylamino)-7,8-dihydropyrido[2,3-d]pyrimidin-6-yl)naphthalen-1-yl)-1-phenylmethanesulfonamide], the IC50 was 0.89 nM.
Molecule `CC(C)n1c(=O)c(-c2cc(F)c(NS(=O)(=O)Cc3ccc(Cl)cc3)c(F)c2)nc2cnc(N[C@H]3CC[C@H](N(C)C)CC3)nc21` [Example 243, 1-(4-Chlorophenyl)-N-[4-[2-[[4-(dimethylamino)cyclohexyl]amino]-8-isopropyl-7-oxo-pteridin-6-yl]-2,6-difluoro-phenyl]methanesulfonamide] has an IC50 of 0.8 nM.
`CC(C)n1c(=O)c(-c2ccc(NS(=O)(=O)CCC(F)(F)F)c(F)c2)cc2cnc(NC3CCC(N(C)C)C(F)C3)nc21` (single isomer, unassigned) [Compound 110B, N-(4-(2-((4-(Dimethylamino)-3-fluorocyclohexyl)amino)-8-isopropyl-7-oxo-7,8-dihydropyrido[2,3-d]pyrimidin-6-yl)-2-fluorophenyl)-3,3,3-trifluoropropane-1-sulfonamide] was tested, and the IC50 was 0.7 nM.
`CC(C)n1c(=O)c(-c2cc(F)c(NS(=O)(=O)Cc3ccc(F)cc3)c(F)c2F)nc2cnc(N[C@H]3CC[C@H](N(C)C)CC3)nc21` [Compound 175, N-(4-(2-(((1r,4r)-4-(Dimethylamino)cyclohexyl)amino)-8-isopropyl-7-oxo-7,8-dihydropteridin-6-yl)-2,3,6-trifluorophenyl)-1-(4-fluorophenyl)methanesulfonamide hydrochloride] gave an IC50 of 0.14 nM.
Molecule `CC(C)n1c(=O)c(-c2cc(F)c(NS(=O)(=O)Cc3ccc(F)cc3)c(F)c2F)cc2cnc(N[C@H]3CC[C@H](N(C)CCF)CC3)nc21` [Compound 141, 1-(4-Fluorophenyl)-N-(2,3,6-trifluoro-4-(2-(((1r,4r)-4-((2-fluoroethyl)(methyl)amino)cyclohexyl)amino)-8-isopropyl-7-oxo-7,8-dihydropyrido[2,3-d]pyrimidin-6-yl)phenyl)methanesulfonamide] has an IC50 of 0.18 nM.
`Cc1nc(NS(=O)(=O)c2ccccc2F)ccc1-c1cc2cnc(N[C@H]3CC[C@H](N(C)C)CC3)nc2n(C(C)C)c1=O` [Compound 140, N-(5-(2-(((1r,4r)-4-(Dimethylamino)cyclohexyl)amino)-8-isopropyl-7-oxo-7,8-dihydropyrido[2,3-d]pyrimidin-6-yl)-6-methylpyridin-2-yl)-2-fluorobenzenesulfonamide] gave an IC50 of 0.3 nM.
`CCC(C)n1c(=O)c(-c2ccc(NS(=O)(=O)Cc3ccccc3F)c(F)c2)cc2cnc(N[C@@H]3CNC[C@@H](F)C3)nc21` (single isomer, unassigned) [Compound 202A, hydrochloride] gave an IC50 of 0.26 nM.
For `CCCS(=O)(=O)Nc1ccc(-c2nc3cnc(N[C@@H]4CNC[C@@H](F)C4)nc3n(C(C)C)c2=O)cc1F` [Compound 82, N-[2-Fluoro-4-[2-[[(3S,5S)-5-fluoro-3-piperidyl]amino]-8-isopropyl-7-oxo-pteridin-6-yl]phenyl]propane-1-sulfonamide], the IC50 was 0.8 nM.
Molecule `CC(C)n1c(=O)c(-c2ccc(NS(=O)(=O)Cc3ccccc3C#N)c(F)c2)nc2cnc(N[C@@H]3CNC[C@@H](F)C3)nc21` [Compound 80, 1-(2-Cyanophenyl)-N-[2-fluoro-4-[2-[[(3S,5S)-5-fluoro-3-piperidyl]amino]-8-isopropyl-7-oxo-pteridin-6-yl]phenyl]methanesulfonamide] has an IC50 of 0.2 nM.
For `CC(C)n1c(=O)c(-c2ccc(NS(=O)(=O)CC3CCCCC3)nc2)cc2cnc(N[C@H]3CC[C@H](N(C)C)CC3)nc21` [Compound 152, 1-Cyclohexyl-N-(5-(2-(((1r,4r)-4-(dimethylamino)cyclohexyl)amino)-8-isopropyl-7-oxo-7,8-dihydropyrido[2,3-d]pyrimidin-6-yl)pyridin-2-yl)methanesulfonamide], the IC50 was 0.18 nM.
